Test results published in patent US12252524B2, “GIP/GLP1 co-agonist compounds” (Eli Lilly and Company, priority 2018, dated 2025).
Read-outs that look alike come from different tables or passages of the source. Numbered stars: 1 amine (or outer) side, 2 acyl side, 3 side chain; on linkers, the order of the positions; unused ones are H or OH. Square brackets hold non-standard residues; d marks the D form. Side chains are listed from the residue outwards. Peptide text beside a SMILES is read from it. * marks the point of attachment. C20 diacid = O=C(O)CCCCCCCCCCCCCCCCCCC(=O)*; C18 diacid = O=C(O)CCCCCCCCCCCCCCCCC(=O)*; αMePhe(2-F) = C[C@](N)(Cc1ccccc1F)C(=O)O; γGlu = O=C(O)[C@H](CCC(=O)[*:2])N[*:1]; αMeF = C[C@](N)(Cc1ccccc1)C(=O)O; αMeL = CC(C)C[C@](C)(N)C(=O)O; AEEA = NCCOCCOCC(=O)O; Aib = CC(C)(N)C(=O)O

Columns and labels:
human Gcg receptor = biological target: T1, human Gcg receptor (Homo sapiens, UniProt P47871); assay: [125I]-Glucagon binding (SPA), human Gcg receptor
T1 construct: expressed in transfected cells; crude membranes
T1 sequence (P47871 26-477): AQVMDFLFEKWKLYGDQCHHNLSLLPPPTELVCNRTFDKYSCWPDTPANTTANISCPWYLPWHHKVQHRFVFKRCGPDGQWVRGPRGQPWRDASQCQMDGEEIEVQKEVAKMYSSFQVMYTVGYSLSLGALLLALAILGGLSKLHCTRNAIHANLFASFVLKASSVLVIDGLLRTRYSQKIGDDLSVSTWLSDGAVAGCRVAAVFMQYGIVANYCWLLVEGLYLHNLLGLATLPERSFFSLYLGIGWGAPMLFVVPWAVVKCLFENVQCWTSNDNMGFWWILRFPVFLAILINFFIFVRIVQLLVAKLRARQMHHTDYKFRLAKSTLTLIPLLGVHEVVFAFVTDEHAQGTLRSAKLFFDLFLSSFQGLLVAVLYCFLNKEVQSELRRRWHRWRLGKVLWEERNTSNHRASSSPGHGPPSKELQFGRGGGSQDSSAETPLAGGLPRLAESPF
Procedure, shortened: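 Crude membranes from cells expressing the receptor, prepared by hypotonic lysis in 50 mM Tris HCl pH 7.5 with protease inhibitors, homogenization and differential centrifugation, were used in a WGA-bead SPA. Binding buffer: 25 mM HEPES pH 7.4, 2.5 mM CaCl2, 1 mM MgCl2, bacitracin, Tween-20.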

[1] = biological target: T2, gastric inhibitory peptide receptor (GIPR) (Homo sapiens, UniProt P48546); assay: cAMP pharmacological functional assay in presence of casein, hGIPR; type: cell-based
T2 sequence (P48546 22-466): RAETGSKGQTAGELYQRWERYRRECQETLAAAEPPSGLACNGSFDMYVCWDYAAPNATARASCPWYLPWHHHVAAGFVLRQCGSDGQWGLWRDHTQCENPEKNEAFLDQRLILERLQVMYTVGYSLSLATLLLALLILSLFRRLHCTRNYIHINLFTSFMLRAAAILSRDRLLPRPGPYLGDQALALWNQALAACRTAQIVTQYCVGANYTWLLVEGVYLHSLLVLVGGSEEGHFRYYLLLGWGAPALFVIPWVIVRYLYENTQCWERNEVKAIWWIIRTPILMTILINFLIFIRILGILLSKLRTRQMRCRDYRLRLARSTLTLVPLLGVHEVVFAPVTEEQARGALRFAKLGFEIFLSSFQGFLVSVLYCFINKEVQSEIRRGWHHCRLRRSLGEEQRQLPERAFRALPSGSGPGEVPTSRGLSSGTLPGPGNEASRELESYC

human GLP-1R [2] = biological target: T3, human GLP-1R (Homo sapiens, UniProt P43220); assay: [125I]-GLP-1 binding (SPA), human GLP-1 receptor; parameters: expressed in transfected cells; crude membranes
T3 sequence (P43220 24-463): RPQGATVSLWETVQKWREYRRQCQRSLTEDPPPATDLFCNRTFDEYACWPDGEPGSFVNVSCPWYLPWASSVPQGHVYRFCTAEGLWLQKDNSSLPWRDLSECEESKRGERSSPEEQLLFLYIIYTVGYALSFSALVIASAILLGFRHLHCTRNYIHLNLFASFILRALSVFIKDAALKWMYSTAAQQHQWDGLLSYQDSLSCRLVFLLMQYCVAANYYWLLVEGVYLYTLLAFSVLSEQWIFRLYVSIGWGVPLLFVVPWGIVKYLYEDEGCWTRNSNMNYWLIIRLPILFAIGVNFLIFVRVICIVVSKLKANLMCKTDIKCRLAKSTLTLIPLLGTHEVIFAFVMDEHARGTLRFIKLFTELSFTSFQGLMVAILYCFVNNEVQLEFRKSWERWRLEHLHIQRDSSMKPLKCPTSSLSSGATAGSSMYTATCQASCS
Procedure, shortened: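 Membranes: hypotonic lysis (50 mM Tris HCl, pH 7.5, protease inhibitors), Potter-Elvehjem homogenization, high-speed pellet (35000×g 1 h or 25000×g 30 min, 4° C.). Buffer: 25 mM HEPES pH 7.4, 2.5 mM CaCl2, 1 mM MgCl2. Four-parameter IC50 fit; Ki as geometric mean ± SEM.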

[3] = biological target: human GLP-1 receptor (GLP-1R) (Homo sapiens, UniProt P43220); assay: cAMP pharmacological functional assay in presence of casein, hGLP-1R; type: cell-based
Sequence of human GLP-1 receptor (GLP-1R) (P43220 24-463): as above

human GIP receptor = biological target: T4, human GIP receptor (Homo sapiens, UniProt P48546); assay: [125I]-GIP binding (SPA), human GIP receptor
T4 construct: expressed in transfected cells; crude membranes
T4 sequence (P48546 22-466): T2 sequence (P48546 22-466)

[4] = Body weight in diet-induced obese C57/B16 mice, 14-day treatment; type: in vivo, C57/B16 diet-induced obese (DIO) male mice; conditions: s.c., QD, DIO mice
Method: C57/B16 diet-induced obese (DIO) male mice (Taconic, Germantown, NY) weighing 41-50 g are used. Animals are individually housed in a temperature-controlled (24° C.) facility with a 12 hour light/dark photoperiod (lights off at 10:00 AM and lights on at 10:00 PM), with free access to food and water. After 2 week acclimatization to the facility, mice are randomized to treatment groups (n=6/group) based on body weight so each group has similar starting mean body weight.
Mice are treated with either vehicle (40 mM Tris-HCl at pH 8.0) or several peptides between the dose ranges of 0.03 nmol/kg to 10 nmol/kg. Treatments are subcutaneously administered to ad libitum fed DIO mice 30-90 minutes prior to the onset of the dark cycle daily (QD) for 14 days. During the course of the study, body weight and food intake are monitored daily. […]
[formula] “0” dose group represents the vehicle-treated mice during each study. All data are expressed as mean±SEM of 5-6 mice per group. Statistical analyses are assessed by one-way ANOVA followed by Dunnett's multiple comparison test to compare treatment groups to ‘0’, dose (vehicle). *Significant differences are identified at p<0.05. Body weight change after treatment with Example compounds after 15 days. “Δ from vehicle” refers to difference between body weight at day 15 between test and vehicle groups. “% n change” refers to percent decrease in body weight between days 1 and 15 in test groups. Percent decrease in body weight for animals receiving vehicle is recorded, and is less than about 100 in each study.

[5] = Proteolytic stability assay in 90% pig small intestinal fluid (pSIF); type: in vitro ADME; conditions: 90% pSIF, 37° C.
Method: Peptides are diluted to a concentration of 0.4 mg/mL in 90% pig small intestinal fluid. After the mixing, 20 μL are immediately removed (time 0 for the time point of pre-incubation). The mixture is then incubated at 37° C. at 150 rpm. […] The sample is centrifuged at 20,000×g for 20 min at 4° C.
The data analysis is performed using MassLynx.

human GLP-1R [6] = biological target: T3, human GLP-1R; assay: GLP-1R HEK293 cell membrane [35S]GTPγS binding assay; type: biochemical; parameters: expressed in transfected cells; host or cells: HEK293 cells expressing human GLP-1R; membranes
Procedure, shortened: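 Membranes from HEK293 cells expressing the receptor incubated with peptide and […] [35S]GTPγS in HEPES pH 7.4 buffer with NaCl, MgCl2, saponin and BSA, 30 min at room temperature. Gαs-bound label captured by anti-Gαs antibody/SPA beads and counted; EC50 from four-parameter logistic fit.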

[7] = read-out: hGLcgR Ki, nM (SEM, n)
[8] = HEK293 cells expressing hGIPR, 0.1% Casein, geometric mean, read-out: hGIPR cAMP Rel EC50 nM (SEM, n)
[9] = read-out: hGLP1R Ki, (nM) (SEM, n)
[10] = HEK293 cells expressing hGLP-1R, 0.1% Casein, geometric mean, read-out: hGLP1R cAMP Rel EC50 nM (SEM, n)
[11] = read-out: hGIPR Ki, nM (SEM, n)

| Ki (human Gcg receptor; [7]) | EC50 [1, 8] | Ki (human GLP-1R [2]; [9]) | EC50 [3, 10] | Ki (human GIP receptor; [11]) | Structure (SMILES) | percent body weight after 14-day of treatment ([4]; dose 0.03 nmol/kg) | percent body weight after 14-day of treatment ([4]; dose 0.1 nmol/kg) | percent body weight after 14-day of treatment ([4]; dose 0.3 nmol/kg) | percent body weight after 14-day of treatment ([4]; dose 1 nmol/kg) | percent body weight after 14-day of treatment ([4]; dose 3 nmol/kg) | percent body weight after 14-day of treatment ([4]; dose 10 nmol/kg) | further results |
| --- | --- | --- | --- | --- | --- | --- | --- | --- | --- | --- | --- | --- |
| 123 nM | 0.0323 nM | 3.91 nM | 0.0248 nM | 0.0565 nM | CC[C@H](C)[C@H](NC(=O)[C@H](CC(C)C)NC(=O)[C@H](Cc1ccc(O)cc1)NC(=O)[C@H](CCC(=O)O)NC(=O)[C@@H](NC(=O)[C@H](Cc1ccccc1)NC(=O)[C@H](CCC(=O)O)NC(=O)C(C)(C)NC(=O)[C@H](CCC(N)=O)NC(=O)[C@H](C)NC(=O)[C@H](CCCCNC(=O)COCCOCCNC(=O)COCCOCCNC(=O)CC[C@H](NC(=O)CCCCCCCCCCCCCCCCC(=O)O)C(=O)O)NC(=O)[C@H](CCC(=O)O)NC(=O)[C@H](CC(=O)O)NC(=O)[C@H](CC(C)C)NC(=O)[C@](C)(CC(C)C)NC(=O)[C@@H](NC(=O)[C@H](CO)NC(=O)[C@H](Cc1ccc(O)cc1)NC(=O)[C@H](CC(=O)O)NC(=O)[C@H](CO)NC(=O)[C@@H](NC(=O)[C@](C)(Cc1ccccc1F)NC(=O)[C@@H](NC(=O)CNC(=O)[C@H](CCC(=O)O)NC(=O)C(C)(C)NC(=O)[C@@H](N)Cc1ccc(O)cc1)[C@@H](C)O)[C@@H](C)O)[C@@H](C)CC)[C@@H](C)CC)C(=O)N[C@@H](CCC(=O)O)C(=O)NCC(=O)NCC(N)=O [Example 104] (H-Y[Aib]EGT[αMePhe(2-F)]TSDYSI[αMeL]LDEK([AEEA-AEEA-γGlu-C18 diacid])AQ[Aib]EFIEYLIEGG-NH2) | 94.0% | 94.1% | 89.0% | 82.7% | 70.8% | 71.3% |  |
| 80.1 nM | 0.0423 nM | 1.31 nM | 0.0344 nM | 0.0469 nM | CC[C@H](C)[C@H](NC(=O)[C@H](CC(C)C)NC(=O)[C@H](Cc1ccc(O)cc1)NC(=O)[C@H](CCC(=O)O)NC(=O)[C@@H](NC(=O)[C@H](Cc1ccccc1)NC(=O)[C@H](CCC(=O)O)NC(=O)C(C)(C)NC(=O)[C@H](CCC(N)=O)NC(=O)[C@H](C)NC(=O)[C@H](CCCCNC(=O)COCCOCCNC(=O)COCCOCCNC(=O)CC[C@H](NC(=O)CCCCCCCCCCCCCCCCCCC(=O)O)C(=O)O)NC(=O)[C@H](CCCCN)NC(=O)[C@H](CC(=O)O)NC(=O)[C@H](CC(C)C)NC(=O)[C@](C)(CC(C)C)NC(=O)[C@@H](NC(=O)[C@H](CO)NC(=O)[C@H](Cc1ccc(O)cc1)NC(=O)[C@H](CC(=O)O)NC(=O)[C@H](CO)NC(=O)[C@@H](NC(=O)[C@](C)(Cc1ccccc1)NC(=O)[C@@H](NC(=O)CNC(=O)[C@H](CCC(=O)O)NC(=O)C(C)(C)NC(=O)[C@@H](N)Cc1ccc(O)cc1)[C@@H](C)O)[C@@H](C)O)[C@@H](C)CC)[C@@H](C)CC)C(=O)N[C@@H](CCC(=O)O)C(=O)NCC(=O)NCC(=O)N1CCC[C@H]1C(=O)N[C@@H](CO)C(=O)N[C@@H](CO)C(=O)NCC(N)=O [Example 123] (H-Y[Aib]EGT[αMeF]TSDYSI[αMeL]LDKK([AEEA-AEEA-γGlu-C20 diacid])AQ[Aib]EFIEYLIEGGPSSG-NH2) | 94.7% | 90.5% | 86.5% | 81.3% | 75.1% | 68.6% |  |
|  |  |  |  |  | CC[C@H](C)[C@H](NC(=O)[C@H](CC(C)C)NC(=O)[C@](C)(Cc1ccc(O)cc1)NC(=O)[C@@H](CCC(=O)O)NC(=O)[C@@H](NC(=O)[C@H](Cc1ccccc1)NC(=O)[C@H](CCC(=O)O)NC(=O)C(C)(C)NC(=O)[C@H](CCC(N)=O)NC(=O)[C@H](C)NC(=O)[C@H](CCCCNC(=O)COCCOCCNC(=O)COCCOCCNC(=O)CC[C@H](NC(=O)CCCCCCCCCCCCCCCCC(=O)O)C(=O)O)NC(=O)[C@H](CCCN)NC(=O)[C@H](CC(=O)O)NC(=O)[C@H](CC(C)C)NC(=O)[C@](C)(CC(C)C)NC(=O)[C@@H](NC(=O)[C@H](CO)NC(=O)[C@@H](NC(=O)[C@H](CC(=O)O)NC(=O)[C@H](CO)NC(=O)[C@@H](NC(=O)[C@](C)(Cc1ccccc1F)NC(=O)[C@@H](NC(=O)CNC(=O)[C@H](CCC(=O)O)NC(=O)C(C)(C)NC(=O)[C@@H](N)Cc1ccc(O)cc1)[C@@H](C)O)[C@@H](C)O)C(C)C)[C@@H](C)CC)[C@@H](C)CC)C(=O)N[C@@H](CCC(=O)O)C(=O)NCC(=O)NCC(=O)N1CCC[C@H]1C(=O)N[C@@H](CO)C(=O)N[C@@H](CO)C(=O)NCC(=O)N[C@@H](C)C(=O)N1CCC[C@H]1C(=O)N1CCC[C@H]1C(=O)N1CCC[C@H]1C(=O)N[C@@H](CO)C(N)=O [Example 5] |  |  |  |  |  |  | percentage of peptide not cleaved using pSIF ([5]; 0 min): 100%; remaining at 0.5 h, 0.4 mg/mL ([5]; pig, 90% pig small intestinal fluid (pSIF), 30 min, read-out: percentage of peptide not cleaved using pSIF): 76.9%; remaining at 0.75 h, 0.4 mg/mL ([5]; pig, 90% pig small intestinal fluid (pSIF), 45 min, read-out: percentage of peptide not cleaved using pSIF): 56.8%; remaining at 1 h, 0.4 mg/mL ([5]; pig, 90% pig small intestinal fluid (pSIF), 60 min, read-out: percentage of peptide not cleaved using pSIF): 60.7%; Ki (human Gcg receptor): 519 nM; EC50 [1]: 0.0309 nM; Ki (human GLP-1R [2]): 0.902 nM; EC50 [3]: 0.0164 nM; EC50 (human GLP-1R [6]): 0.196 nM; Ki (human GIP receptor): 0.0611 nM |
